A word on the EC50: it is the concentration at which the effect is half-maximal. For orientation: EC90 means the point of the concentration-response curve where the effect stands at 90%.

The subject of assay [1] is dengue virus type 2. Nature of the assay: Functional immunofluorescence assay to measure dose dependent changes in antiviral-drug inhibitory efficacy against Dengue virus type 2 Thailand/16681/84 in Vero E6/TMPRSS2 cells (cotreated with P-gp inhibitor, Elacridar). Cells are treated with antiviral candidates that are serially diluted, following infection, cells are fixed. EC50 is reported via analysis of immunofluorescence staining. The assay has been performed by Icahn School of Medicine at Mount Sinai. The assay is classed as organism-based, Chlorocebus sabaeus, VeroE6/TMPRSS2. The conditions noted are these: Dengue virus.

Assay [2] concerns Zika virus. Nature of the assay: EC50 is reported via analysis of immunofluorescence staining. The assay has been performed by Icahn School of Medicine at Mount Sinai. The following applies: for EC90: P-gp concentration 2 uM, P-gp inhibitor Elacidar. The format is functional, organism-based, Chlorocebus sabaeus, VeroE6/TMPRSS2.
The test system of assay [3] is dengue virus type 2. Nature of the assay: Functional assay to measure dose dependent changes in antiviral-drug inhibitory efficacy against Dengue virus type 2 New Guinea C in Vero E6 miRFP670 cells (cotreated with P-gp inhibitor, CP100356). Cells are treated with antiviral candidates that are serially diluted, following infection, cells are fixed. EC50 is reported via analysis of fluorescence intensity using high-content imager. The …. The assay is classed as organism-based, Chlorocebus sabaeus, Vero C1008. The conditions noted are these: Dengue virus; for EC90: P-gp concentration 500 nM, P-gp inhibitor CP100356.

Assay [4] relates to Zika virus. Nature of the assay: Functional CPE-based assay to measure dose dependent changes in antiviral-drug inhibitory efficacy against Zika virus MR766 in Vero E6 miRFP670 cells (cotreated with P-gp inhibitor, CP100356). Cells are treated with antiviral candidates that are serially diluted. EC50 is reported via analysis of MTS assay as a readout of CPE. The assay has been performed by KU Leuven. The assay is classed as organism-based, Chlorocebus sabaeus, Vero C1008. The conditions noted are these: Zika virus; for EC90: P-gp concentration 500 nM, P-gp inhibitor CP100356. Background: Tetrazolium assays rely on reduction of a dye to a coloured formazan, in cell work by metabolically active cells.

“And” between values parts separate entries of the source, which are not always exact repeats. Identical values can stand only once. Where only a bound is given, the exact number is not on record here.

For the compound `COC(=O)CNC(=O)[C@H](Nc1ccc2c(c1)CNC2)c1cc(Cl)cc(C2CC2)c1`, the EC50 in assay [1] (VeroE6/TMPRSS2) is greater than 50 µM; in assay [2] (veroe6/tmprss2), greater than 16.7 µM; in assay [3] (Vero C1008), greater than 50 µM; in assay [4] (Vero C1008), greater than 50 µM. The concentration for an effect of 90% (EC90) in assay [1] (VeroE6/TMPRSS2, Maximum measured 158.675 %, Minimum measured 120.715 %, P-gp concentration 2 uM, P-gp inhibitor Elacidar) is greater than 50 µM; in assay [2] (Zika virus, VeroE6/TMPRSS2, Maximum measured 147.006 %, Minimum measured 69.301 %), greater than 16.7 µM; in assay [2] (Zika virus, VeroE6/TMPRSS2, Baseline response 0 %, Hill slope -5.229, Maximum measured 154.716 %, Maximum response 100 %, Minimum measured 79.745 %, R squared 0.023) it was greater than 5.56 µM; in assay [3] (Vero C1008, Maximum measured 109.152 %, Minimum measured 106.626 %) it was greater than 50 µM; in assay [4] (Vero C1008, Baseline response 0 %, Hill slope 2.666, Maximum measured 16.971 %, Maximum response 100 %, Minimum measured -1.569 %, R squared 0.882), greater than 50 µM.
Regarding `O=C(NCc1ccc(F)cc1)[C@H](Nc1ccc2c(c1)CNC2)c1cc(Cl)cc2[nH]ncc12`, the EC50 in assay [1] (VeroE6/TMPRSS2), in assay [3] (Vero C1008) and in assay [4] (Vero C1008) was greater than 50 µM throughout. For the same compound, the EC90 in assay [1] (VeroE6/TMPRSS2, Maximum measured 150.332 %, Minimum measured 95.286 %, P-gp concentration 2 uM, P-gp inhibitor Elacidar) was greater than 50 µM; in assay [2] (Baseline response 0 %, EC90 CI (lower) 0.003 uM, EC90 CI (upper) 0.037 uM, Hill slope -0.964, Maximum measured 95.888 %, Maximum response 100 %, Minimum measured 15.187 %, R squared 0.753) it was 0.949 µM; in assay [2] (Baseline response 0 %, Hill slope -0.072, Maximum measured 102.654 %, Maximum response 100 %, Minimum measured 56.434 %, R squared 0.024) it was greater than 16.7 µM; in assay [3] (Vero C1008, Maximum measured 108.299 %, Minimum measured 100.399 %), greater than 50 µM; in assay [4] (Vero C1008, Maximum measured 1.197 %, Minimum measured -8.607 %), greater than 50 µM.
`O=C(Nc1ccc2c(c1)CCNCC2)c1cc(Cl)cc2[nH]ncc12`: the EC50 in assay [1] (VeroE6/TMPRSS2) is greater than 50 µM; in assay [2] (Zika virus, VeroE6/TMPRSS2), greater than 50 µM; in assay [3] (Vero C1008) it was greater than 25 µM; in assay [4] (Vero C1008), greater than 50 µM. The EC90 in assay [1] (VeroE6/TMPRSS2) is greater than 50 µM; in assay [2] (Zika virus, VeroE6/TMPRSS2, Maximum measured 112.155 %, Minimum measured 46.888 %), greater than 50 µM; in assay [3] (Vero C1008, Baseline response 0 %, Hill slope -0.681, Maximum measured 107.454 %, Maximum response 100 %, Minimum measured 77.093 %, R squared 0.152), greater than 25 µM; in assay [4] (Vero C1008, Maximum measured -0.637 %, Minimum measured -2.713 %), greater than 50 µM.
Regarding `O=C(Nc1ccc2c(c1)CNC2)c1cc(F)cc2[nH]nnc12`, the EC50 is greater than 50 µM in assay [1] (VeroE6/TMPRSS2); greater than 50 µM in assay [2] (Zika virus, VeroE6/TMPRSS2); greater than 50 µM in assay [3] (Vero C1008); greater than 50 µM in assay [4] (Vero C1008). The EC90 is greater than 50 µM in assay [1] (VeroE6/TMPRSS2, Maximum measured 175.922 %, Minimum measured 81.786 %, P-gp concentration 2 uM, P-gp inhibitor Elacidar); greater than 50 µM in assay [1] (VeroE6/TMPRSS2, Baseline response 0 %, Hill slope 0.135, Maximum measured 108.442 %, Maximum response 100 %, Minimum measured 80.171 %, P-gp concentration 2 uM, R squared 0.018, P-gp inhibitor Elacidar); greater than 50 µM in assay [2] (Zika virus, VeroE6/TMPRSS2, Maximum measured 143.994 %, Minimum measured 34.535 %); greater than 50 µM in assay [3] (Vero C1008, Maximum measured 103.909 %, Minimum measured 99.111 %); greater than 50 µM in assay [4] (Vero C1008, Maximum measured -0.357 %, Minimum measured -5.629 %).
Regarding `N#CCCNC(=O)[C@H](Nc1ccc2c(c1)CNC2)c1cc(Cl)cc(C2CC2)c1`, the EC50 in assay [1] (VeroE6/TMPRSS2) is greater than 50 µM; in assay [2] (veroe6/tmprss2) it was > 5.56 µM and 2.54 µM; in assay [3] (Vero C1008), greater than 50 µM; in assay [4] (Vero C1008), 4.22 µM. The concentration for an effect of 90% (EC90) was greater than 50 µM in assay [1] (VeroE6/TMPRSS2, Maximum measured 184.621 %, Minimum measured 81.605 %, P-gp concentration 2 uM, P-gp inhibitor Elacidar); greater than 5.56 µM in assay [2] (Zika virus, VeroE6/TMPRSS2, Maximum measured 63.585 %, Minimum measured 35.457 %); greater than 16.7 µM in assay [2] (Zika virus, VeroE6/TMPRSS2, Baseline response 0 %, Hill slope -0.414, Maximum measured 108.813 %, Maximum response 100 %, Minimum measured 38.683 %, R squared 0.619); greater than 50 µM in assay [3] (Vero C1008, Maximum measured 137.124 %, Minimum measured 107.523 %); 7.89 µM in assay [4] (Vero C1008, Baseline response 0 %, EC90 CI (lower) 2.191 uM, EC90 CI (upper) 28.402 uM, Hill slope 3.509, Maximum measured 177.981 %, Maximum response 100 %, Minimum measured 1.478 %, R squared 0.727).
Regarding `O=C(NC[C@H]1CCCO1)[C@H](Nc1ccc2c(c1)CNC2)c1cc(Cl)cc2[nH]ncc12`, the EC50 in assay [1] (VeroE6/TMPRSS2) was greater than 16.7 µM; in assay [2] (Zika virus, VeroE6/TMPRSS2) it was 0.309 µM; in assay [3] (Vero C1008), greater than 6.25 µM; in assay [4] (Vero C1008) it was greater than 50 µM. For the same compound, the EC90 is greater than 16.7 µM in assay [1] (VeroE6/TMPRSS2, Maximum measured 188.503 %, Minimum measured 79.522 %, P-gp concentration 2 uM, P-gp inhibitor Elacidar); greater than 16.7 µM in assay [2] (Zika virus, VeroE6/TMPRSS2, Baseline response 0 %, Hill slope -0.364, Maximum measured 91.96 %, Maximum response 100 %, Minimum measured 21.463 %, R squared 0.587); greater than 6.25 µM in assay [3] (Vero C1008, Maximum measured 107.029 %, Minimum measured 98.467 %); greater than 50 µM in assay [4] (Vero C1008, Baseline response 0 %, Hill slope 0.096, Maximum measured 37.493 %, Maximum response 100 %, Minimum measured 16.803 %, R squared 0.054).
For the compound `O=C(Nc1ccc2c(n1)CNC2)c1cc(Cl)cc2[nH]ncc12`, the EC50 in assay [1] (VeroE6/TMPRSS2) was 33.2 µM; in assay [2] (Zika virus, VeroE6/TMPRSS2), 5.29 µM; in assay [3] (Vero C1008), greater than 50 µM; in assay [4] (Vero C1008) it was greater than 50 µM. The 90% effect concentration (EC90) in assay [1] (VeroE6/TMPRSS2, Baseline response 0 %, Hill slope -0.91, Maximum measured 153.42 %, Maximum response 100 %, Minimum measured 44.335 %, P-gp concentration 2 uM, R squared 0.461, P-gp inhibitor Elacidar) is greater than 50 µM; in assay [2] (Zika virus, VeroE6/TMPRSS2, Baseline response 0 %, Hill slope -0.136, Maximum measured 80.309 %, Maximum response 100 %, Minimum measured 35.788 %, R squared 0.184), greater than 50 µM; in assay [3] (Vero C1008, Baseline response 0 %, Hill slope 0.339, Maximum measured 101.822 %, Maximum response 100 %, Minimum measured 73.077 %, R squared 0.116), greater than 50 µM; in assay [4] (Vero C1008, Baseline response 0 %, Hill slope 0.276, Maximum measured 8.826 %, Maximum response 100 %, Minimum measured 2.871 %, R squared 0.346), greater than 50 µM.
With `O=C(Nc1ccc2c(c1)CNC2)c1cc(C(F)(F)F)cc2[nH]ccc12`, the EC50 is greater than 16.7 µM in assay [1] (VeroE6/TMPRSS2); greater than 50 µM in assay [2] (Zika virus, VeroE6/TMPRSS2); greater than 50 µM in assay [3] (Vero C1008); 45.6 µM in assay [4] (Vero C1008). The EC90 in assay [1] (VeroE6/TMPRSS2, Baseline response 0 %, Hill slope -15.878, Maximum measured 193.651 %, Maximum response 148.635 %, Minimum measured 63.423 %, P-gp concentration 2 uM, R squared 0.446, P-gp inhibitor Elacidar) was greater than 16.7 µM; in assay [2] (Zika virus, VeroE6/TMPRSS2, Maximum measured 116.047 %, Minimum measured 72.993 %) it was greater than 50 µM; in assay [3] (Vero C1008, Baseline response 0 %, Hill slope -0.556, Maximum measured 107.588 %, Maximum response 100 %, Minimum measured 39.301 %, R squared 0.196) it was greater than 50 µM; in assay [4] (Vero C1008, Baseline response 0 %, Hill slope 3.148, Maximum measured 56.87 %, Maximum response 100 %, Minimum measured -2.102 %, R squared 0.945) it was greater than 50 µM.

The record behind these values is ChEMBL document CHEMBL5661943, “ASAP - In vitro antiviral effect” (2024).
